# In US20030086869A1, “Methods and kits for diagnosing a pancreatic-based fat malabsorption disorder” (priority 2001, published 2003):
# Tests used:
# [1] = Malabsorption Blood Test (MBT): serum levels of PA and HA after oral PA and THA test breakfast meal in healthy control subjects; type: in vivo, human
# Procedure: (§1) Both whole post-absorptive serum and isolated chylomicron fractions of the serum are analyzed for fatty acid composition. Chylomicrons are isolated from plasma by centrifugation at d=1.006 g/ml for 30 minutes at 26,000 g (Hatch, F. T., et al., 1968; Adv. Lipid Res., 6:1-68). Total lipids are extracted from each specimen following the method of Bligh and Dyer (Bligh, E. G., et al., 1959; Can. J. Biochem., 37:911-917). Following transmethylation of the lipid extracts using BF3-methanol, fatty acid composition is determined using gas-liquid chromatographic (GLC) analysis using a Hewlett Packard GLC equipped with a flame ionization detector, an automatic 7673 sampler and […]×0.25 mm ID column composed of a 0.20 micron film of SP-2560 (Supelco, Bellefonte, Pa.) (Morrison, W., et al., 1964; J. Lipid Res. 5:600-608). The temperature is programmed to change from 140° C. to 240° C. at a rate of 4° C./minute. At the time of extraction, heptadecanoic methyl ester is added as an internal standard.
# Healthy control subjects between 18 and 50 years of age were selected. Exclusion criteria included: any chronic illness known to affect nutrient absorption, body mass index (BMI) <21 or >30 kg/m^2 (generally accepted healthy adult ranges), therapy with lipid lowering drugs, diabetes mellitus (NIDDM and IDDM), disorders associated with altered energy metabolism (e.g., hypothyroidism) and disinterest in participating in all three dosing experiments. This adult age range was selected for several reasons: (a) adult subjects are likely to remain committed to all three components of the study; (b) adults will understand the need to provide reliable feedback on taste and tolerance of the test breakfast meal and the entire malabsorption test procedure; and (c) adult subjects are able to plan the experimental day for full cooperation with the multiple phlebotomy events from 0700 to 1500 hours.
# Upon arrival at the study center, subjects had their weight and height measured and an experienced phlebotomist inserted a self-retaining intravenous catheter with a heparin lock for serial blood sampling. After initially drawing 2 milliliters of blood into a sterile syringe, the experimental blood sample (2 milliliters) was drawn and immediately stored in a 4-milliliter serum separator tube. Thereafter, the initial 2 milliliters of blood was infused back into the catheter followed by 2 milliliters of heparin flush. After the baseline blood samples were obtained, the subjects drank an approximately 8 to 12 ounce liquid test breakfast meal. This meal contained one to three doses of PA and THA in a random distribution. Subjects were asked to consume the test breakfast meal within five minutes. Thereafter, serial blood samples were obtained at regular intervals over a period ranging from 30 minutes to 24 hours. During the initial eight-hour period, subjects were permitted to ingest non-caloric and non-caffeinated beverages. A study protocol lunch of known fat content was provided and actual food intake was recorded. Ambulation was limited to maintain adherence to the 30 to 60 minute intervals in the blood sampling schedule. After completion of the blood sampling, the catheter was removed, a snack was offered, and the subjects were encouraged to consume a full meal. The lipid doses (mg/kg) of PA and THA used in this experiment were based on doses 10-fold higher than similar fats used to correct essential fatty acid deficiency in cystic fibrosis, and previous studies which used ^13C […] to qualitatively assess fat malabsorption in pancreatic disease (Rosenlund, M. L., et al., 1977;Pediatrics, 59:428-32; Wutzke, K. D., et al., 1999; J. Pediatr. Gastroenterol. Nutr., 29:148-54).
# Four healthy control subjects were administered a dose of 30 mg/kg PA and 30 mg/kg THA in the digestible composition (a liquid breakfast shake) after a 12-hour fast. Blood was drawn at baseline before consumption of the shake and then every 30 minutes thereafter until hour 6. […]
# [2] = MBT absorption of PA and HA prior to Orlistat in fifteen healthy subjects; type: in vivo, human; conditions: PA 2.5 grams and THA 8.0 grams, FIG. 10, 11
# Source text: Fifteen healthy adult subject volunteers (9 women) 18 to 50 years of age were recruited through local advertisements. Exclusion criteria included: any chronic illness known to affect nutrient absorption, body mass index (BMI) of less than 21 or greater than 30 kg/m^2 (i.e., outside of generally accepted healthy adult ranges), therapy with lipid lowering drugs, diabetes mellitus (NIDDM, IDDM) and disorders associated with altered energy metabolism (e.g., hypothyroidism). This adult age range was selected because Orlistat is FDA approved in adults. In addition, adults are able to plan the experimental days for cooperation with four days of the research study diet, outpatient 72-hour stool collection and phlebotomy requirements. […]
# Subjects underwent a 12-hour fast from 2100 hours on day #1 of the study. […] Upon arrival at the study center on the morning of day #2, subjects had their weight and height measured, and an experienced phlebotomist inserted a self-retaining intravenous catheter with a heparin lock for serial blood sampling. […] The number and timing of blood samples was determined by the experiments in Example 1, and was expected to be six or fewer samples over an eight-hour or less time period. […]
# [3] = MBT serum levels of PA and HA in subjects with CF and pancreatic insufficiency on and off pancreatic enzymes; type: in vivo, human
# Procedure: as §1
# Subjects with CF and pancreatic insufficiency currently treated with pancreatic enzymes, aged greater than 8 years were recruited. Exclusion criteria included: forced expiratory volume of the lungs at 1 second (FEV1) <40%, a history of fibrosing colonopathy or significant bowel resection (>10 cm), mental retardation, significant neurological deficit, developmental disability and autism. Subjects are in their usual state of good health. This age range was selected because it includes children during active growth where information regarding degree of malabsorption leads to improved nutritional intervention and pancreatic enzyme therapy. Also, children greater than 8 years of age are mature enough to provide assent and feedback concerning acceptability and tolerance of the MBT.
# In the experiments shown in FIGS. 12 through 15, three subjects with CF were given either 30 mg/kg PA and 60 mg/kg THA (2 subjects) or 30 mg/kg PA and 90 mg/kg THA (1 subject) in a digestible composition consisting of a liquid breakfast shake after a 12 hour fast. The subjects were tested while they were taking their usual doses of pancreatic enzymes and then were tested again (more than one week later) when they were not taking pancreatic enzymes. Blood was sampled at baseline and then at hourly intervals from 2 to 8 hours and then sampled again at 24 hours. Subjects were fed a prepared lunchtime meal with a known quantity of fat (80 grams). The individual results for fat absorption for the 3 subjects with CF on enzymes are presented in FIG. 12 for PA and FIG. 13 for HA. For the same 3 subjects with CF off enzymes, the results for fat absorption are presented in FIG. 14 for PA and FIG. 15 for HA.
# Additional experiments were performed on six subjects with CF either on or off pancreatic enzyme treatment. The serum levels of PA and HA in these six subjects on and off pancreatic enzyme treatment are presented in FIG. 16 anf FIG. 17, respectively.
# pancreatic lipase = biological target: T1, pancreatic lipase (Homo sapiens, UniProt P16233); test: MBT before and after Orlistat treatment in healthy adult subjects (pharmaceutically induced fat malabsorption); type: in vivo
# T1 construct: from tissue; host or cells: in vivo: endogenous pancreatic secretion in the small intestine of healthy adult subjects
# T1 sequence (P16233 17-465): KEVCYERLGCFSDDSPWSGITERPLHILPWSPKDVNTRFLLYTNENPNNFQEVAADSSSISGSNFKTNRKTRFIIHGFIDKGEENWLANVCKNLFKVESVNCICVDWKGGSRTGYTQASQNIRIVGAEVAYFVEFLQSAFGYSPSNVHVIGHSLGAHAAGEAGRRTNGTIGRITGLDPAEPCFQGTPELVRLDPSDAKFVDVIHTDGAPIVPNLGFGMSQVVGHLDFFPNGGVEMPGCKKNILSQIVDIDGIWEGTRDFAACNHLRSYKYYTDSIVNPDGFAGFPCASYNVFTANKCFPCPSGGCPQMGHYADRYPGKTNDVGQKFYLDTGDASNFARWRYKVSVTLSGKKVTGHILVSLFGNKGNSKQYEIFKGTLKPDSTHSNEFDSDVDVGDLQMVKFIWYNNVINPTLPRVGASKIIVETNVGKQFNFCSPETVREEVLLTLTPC
# T1 sequence (P04118 23-112 partner): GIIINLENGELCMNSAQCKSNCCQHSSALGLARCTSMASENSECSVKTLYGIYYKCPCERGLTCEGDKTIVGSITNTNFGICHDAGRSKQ
# Procedure: Analysis of the baseline and subsequent half-hourly or hourly serum samples taken for up to eight hours for the three doses of pentadecanoic acid (PA) and triglyceride containing heptadecanoic fatty acids (THA) are used to create time-dependent measured and normalized measured (see below) dosage response curves. Each concentration is analyzed independently for each subject and as a complete set for all subjects to determine the rates of absorption, distribution, and elimination for each of the measured fatty acids PA and heptadecanoic acid (HA) and the pancreatic enzyme activity for the hydrolysis of THA. The simplest model to determine a coefficient of fat absorption and an index of pancreatic enzyme activity is derived from the set of normal subjects and subsequently applied to subjects before and during therapy with a pancreatic enzyme inhibitor (Orlistat). Finally, this model is applied to subjects with CF receiving various levels of enzyme therapy to determine their coefficient of fat absorption and their index of enzymatic activity. In the simplest possible situation, the measured levels of both HA and PA are dose independent and reach an early and prolonged steady state in either whole plasma or in the chylomicron fraction. In that case, the normalized PA and HA can be compared against a CFA measured using the conventional standard 72 hour stool and diet collection method for the same patient and an appropriate conversion factor (which may be dependent upon the BMI) can be determined from the data. The ratio of the normalized HA to the normalized PA is defined as an index reflecting the pancreatic enzymatic activity profile during the absorption phase. The data is analyzed for any dependence of this index upon the patient's age or BMI. The comparisons before and after therapy with Orlistat are expected to reflect a decrease in this index of approximately 70%. […]
# [4] = four healthy control subjects, 30 mg/kg PA and 60 mg/kg THA, FIG. 3A, 4, 5A
# [5] = four healthy control subjects, 30 mg/kg PA and either 60 or 90 mg/kg THA oral, FIG. 1 model
# [6] = subjects with CF on pancreatic enzymes
"delay before rise in serum concentration ([1]; four healthy control subjects, 30 mg/kg PA and 30 mg/kg THA, liquid breakfast shake after 12-hour fast, FIG. 2)","time at which increase in serum level is evident / begins [1, 4]","time of peak serum level [1, 4]","time of peak serum level ([1]; four healthy control subjects, 30 mg/kg PA and 90 mg/kg THA, FIG. 6-8)","peak serum level ([1]; four healthy control subjects, 30 mg/kg PA and either 60 or 90 mg/kg THA oral at baseline, FIG. 1 model)","time of peak serum level [1, 5]","time post-dose before serum level rises [1, 5]","concentration at 8 h ([1]; human, serum, four healthy control subjects, 30 mg/kg PA and either 60 or 90 mg/kg THA oral, FIG. 1 model, read-out: serum level by eight hours post dose)","time up to which serum response continued to increase (sharp decrease after) ([1]; six healthy volunteers, PA 2.5 grams and THA 5.0 or 8.0 grams, FIG. 5B)",average absorption [2],serum level response ([3]; subjects with CF off pancreatic enzymes),"delay before serum levels increased [3, 6]","time of peak serum level [3, 6]",serum levels compared with healthy control subjects ([3]; subjects with CF taking pancreatic enzymes),Compound,"expected decrease in index of pancreatic enzymatic activity (ratio of normalized HA to normalized PA) after therapy with Orlistat (pancreatic lipase; comparison before and after therapy with Orlistat, expected value of the model)","expected estimated pancreatic enzyme activity in the presence of Orlistat, relative to normal (unsuppressed) activity (pancreatic lipase; fraction of absorbed HA versus fraction of absorbed PA, expected value of the model)","serum response of PA prior to versus after receiving Orlistat (pancreatic lipase; healthy subjects, Orlistat 240 mg TID, PA 2.5 grams and THA 8.0 grams, FIG. 9)"
3 to 4 h,3 h,6 h,6 h,approximately 3 mg/dL,6 h,two,~10000 ng/mL,6 h,approximately 45%,no increase in serum levels,2 h,approximately 6 hours,lower,"CCCCCCCCCCCCCCCCC(=O)O [HA, heptadecanoic acid]",,,
,,,,,,,,,,,,,,CCCCCCCCCCC[C@@H](C[C@@H]1OC(=O)[C@H]1CCCCCC)OC(=O)[C@H](CC(C)C)NC=O [Orlistat],approximately 70%,about 70%,similar
